The source of these data is patent US10667517B2, “2-(Het)aryl-substituted fused heterocycle derivatives as pesticides” (BAYER CROPSCIENCE AKTIENGESELLSCHSAFT, priority 2015, dated 2020).

For one data set, the system named is Spodoptera frugiperda. In words: Spodoptera frugiperda - spray test. The data set is classed as in vivo. As to conditions: armyworm caterpillars on maize leaf discs, after 7 days. Here is the method:
Spodoptera frugiperda—Spray Test
(§1) • Solvent: 78.0 parts by weight of acetone • 1.5 parts by weight of dimethylformamide • Emulsifier: alkylaryl polyglycol ether
(§2) To produce a suitable active compound preparation, 1 part by weight of active compound is dissolved with the stated parts by weight of solvent and made up with water containing an emulsifier concentration of 1000 ppm until the desired concentration is attained. To produce further test concentrations, the preparation is diluted with emulsifier-containing water.
Leaf discs of maize (Zea mays) are sprayed with an active compound preparation of the desired concentration and, after drying, populated with caterpillars of the armyworm (Spodoptera frugiperda).
After 7 days, the efficacy in % is determined. 100% means that all the caterpillars have been killed; 0% means that no caterpillars have been killed.

Data set [1] in a line: log P (neutral), HPLC on reversed-phase column (C 18), LC-MS neutral range. In kind it is physicochemical. The settings on record: pH 7.8, ammonium hydrogencarbonate/acetonitrile; for log P (neutral): HPLC reversed-phase C 18, 55° C.; for chromatographic logP: reversed-phase HPLC column (C 18), pH 7.8, HPLC reversed-phase C 18, 55° C. As to the method:
Temperature: 55° C. […] Called log P (neutral) in the table.

The next data set relates to Phaedon cochleariae. In words: Phaedon cochleariae - spray test. The data set is classed as in vivo. The settings on record: application rate 500 g/ha, mustard beetle larvae on Chinese cabbage leaf discs, after 7 days; for pest or weed control at 500 g/ha: Phaedon cochleariae, foliar, 168 h, read-out: efficacy. Here is the method:
Phaedon cochleariae—Spray Test
as §1, §2
After 7 days, the efficacy in % is determined. 100% means that all the beetle larvae have been killed; 0% means that no beetle larvae have been killed.

For the next data set, the system named is Myzus persicae. In words: Myzus persicae - spray test. In kind it is in vivo. The settings on record: all stages of green peach aphid on Chinese cabbage leaf discs, after 5-6 days. As to the method: Myzus persicae—Spray Test
• Solvent: 78 parts by weight of acetone • 1.5 parts by weight of dimethylformamide • Emulsifier: alkylaryl polyglycol ether
as §2
Discs of Chinese cabbage leaves (Brassica pekinensis) infested by all stages of the green peach aphid (Myzus persicae) are sprayed with an active compound preparation of the desired concentration.
After 5-6 days, the efficacy in % is determined. 100% means that all the aphids have been killed; 0% means that no aphids have been killed.

A further data set concerns Lucilia cuprina. In words: Lucilia cuprina test. The data set is classed as in vivo. As to conditions: application rate 100 ppm; L1 larvae in minced horsemeat; after 2 days. As to the method:
Lucilia cuprina Test • Solvent: dimethyl sulphoxide To produce a suitable active compound preparation, 10 mg of active compound are mixed with 0.5 ml of dimethyl sulphoxide, and the concentrate is diluted with water to the desired concentration. About 20 L1 larvae of the Australian sheep blowfly (Lucilia cuprina) are transferred into a test vessel containing minced horsemeat and the active compound preparation of the desired concentration. After 2 days, the kill in % is determined. 100% means that all the larvae have been killed; 0% means that no larvae have been killed.

As to `CCS(=O)(=O)c1ccc(-n2cc(F)cn2)nc1-c1nc2cc(C(F)(F)F)cnc2n1C` [Example I-24], the efficacy is 100% with Spodoptera frugiperda (application rate 500 g/ha), 100% with Phaedon cochleariae and 90% with Myzus persicae (application rate 500 g/ha). Besides, the “log P (neutral)” value in data set [1] worked out at 3.55.

As to `CCS(=O)(=O)c1ccc(NC(=O)CSC)nc1-c1nc2cc(C(F)(F)F)cnc2n1C` [Example I-20], in data set [1], the “log P (neutral)” value was 2.79. The efficacy is on record as 100% in the data set with Phaedon cochleariae and 90% in the data set on Myzus persicae (application rate 500 g/ha).

As for `CCS(=O)(=O)c1ccc(-n2cc(Cl)cn2)nc1-c1nc2cc(C(F)(F)F)cnc2n1C` [Example I-14], the efficacy with Spodoptera frugiperda (application rate 500 g/ha) and with Phaedon cochleariae was 100% each time. Besides, the “log P (neutral)” value in data set [1] is on record as 3.9. The “efficacy (kill)” value in the data set on Lucilia cuprina was found to be 100%.

For `CCS(=O)(=O)c1ccc(N)nc1-c1nc2cc(C(F)(F)F)ccc2n1C` [Example I-3, 5-(Ethylsulphonyl)-6-[1-methyl-5-(trifluoromethyl)-1H-benzimidazol-2-yl]pyridin-2-amine], in data set [1], the chromatographic logP amounted to 2.18. The pest or weed control at 500 g/ha in the data set with Phaedon cochleariae amounted to 100%. In the data set with Myzus persicae (application rate 500 g/ha), the efficacy stood at 100%.

With `CCS(=O)(=O)c1ccc(NC(C)=O)nc1-c1nc2cc(C(F)(F)F)cnc2n1C` [Example I-5, N-{5-(Ethylsulphonyl)-6-[3-methyl-6-(trifluoromethyl)-3H-imidazo[4,5-b]pyridin-2-yl]pyridin-2-yl}acetamide], the efficacy stood at 100% in the data set on Spodoptera frugiperda (application rate 100 g/ha) and 90% with Myzus persicae (application rate 500 g/ha). The same compound displayed a chromatographic logP in data set [1] of 2.3. For the same compound, the pest or weed control at 500 g/ha in the data set with Phaedon cochleariae was found to be 100%.

Turning to `CCS(=O)(=O)c1ccc(NC(=O)C2CC2)nc1-c1nc2cc(C(F)(F)F)cnc2n1C` [Example I-16], the efficacy with Spodoptera frugiperda (application rate 500 g/ha), in the data set on Phaedon cochleariae and with Myzus persicae (application rate 500 g/ha) was 100% throughout. The “log P (neutral)” value in data set [1] was found to be 2.76.

With `CCS(=O)(=O)c1ccc(-n2nccn2)nc1-c1nc2cc(C(F)(F)F)cnc2n1C` [Example I-23], the efficacy in the data set on Spodoptera frugiperda (application rate 500 g/ha) came out at 100%; in the data set on Phaedon cochleariae, 100%; with Myzus persicae (application rate 500 g/ha) it was 90%. Besides, the “log P (neutral)” value in data set [1] is given as 2.66.

`CCS(=O)(=O)c1ccc(NC(=O)C(C)CSC)nc1-c1nc2cc(C(F)(F)F)cnc2n1C` (stereo not drawn) [Example I-25]: the values for the efficacy in the data set with Phaedon cochleariae and with Myzus persicae (application rate 500 g/ha) were 100% and 90%, respectively.

Turning to `CCS(=O)(=O)c1ccc(-n2ccc(C(F)(F)F)n2)nc1-c1nc2cc(C(F)(F)F)ccc2n1C` [Example I-9], the efficacy is given as 100% in the data set with Spodoptera frugiperda (application rate 500 g/ha) and 90% with Myzus persicae (application rate 100 g/ha). Further, the “log P (neutral)” value in data set [1] turned out to be 4.21. Further, the “efficacy (kill)” value in the data set on Lucilia cuprina was 100%.

With `CCS(=O)(=O)c1ccc(N)nc1-c1cn2cnc(C(F)(F)F)cc2n1` [Example I-31], the efficacy in the data set with Spodoptera frugiperda (application rate 500 g/ha) is on record as 100%; with Phaedon cochleariae, 100%; in the data set on Myzus persicae (application rate 500 g/ha), 90%. In addition, the “log P (neutral)” value in data set [1] turned out to be 1.59.

`CCS(=O)(=O)c1ccc(-n2cc(Cl)cn2)nc1-c1cn2cnc(C(F)(F)F)cc2n1` [Example I-17, 2-[6-(4-Chloro-1H-pyrazol-1-yl)-3-(ethylsulphonyl)pyridin-2-yl]-7-(trifluoromethyl)imidazo[1,2-c]pyrimidine] registered an efficacy in the data set with Spodoptera frugiperda (application rate 500 g/ha) of 100%. Besides, in data set [1], the chromatographic logP was found to be 3.46. Moreover, the pest or weed control at 500 g/ha in the data set with Phaedon cochleariae turned out to be 100%.

In data set [1], `CCS(=O)(=O)c1ccc(F)nc1-c1nc2cc(C(F)(F)F)ccc2n1C` [XIII-1, 2-[3-(Ethylsulphonyl)-6-fluoropyridin-2-yl]-1-methyl-5-(trifluoromethyl)-1H-benzimidazole] displayed a chromatographic logP of 2.96.

For `CCSc1ccc(Br)nc1-c1nc2cc(C(F)(F)F)cnc2o1` [XI-5, 2-[6-Bromo-3-(ethylsulphanyl)pyridin-2-yl]-6-(trifluoromethyl)[1,3]oxazolo[5,4-b]pyridine], the chromatographic logP in data set [1] worked out at 4.16.

With `CCS(=O)(=O)c1ccc(NC(=O)C(F)(F)F)nc1-c1nc2cc(C(F)(F)F)cnc2o1` [Example I-40], the “log P (neutral)” value in data set [1] turned out to be 3.09.

Compound `CCSc1ccc(F)nc1-c1cn2cnc(C(F)(F)F)cc2n1` [XI-4, 2-[3-(Ethylsulphanyl)-6-fluoropyridin-2-yl]-7-(trifluoromethyl)imidazo[1,2-c]pyrimidine] came in with a chromatographic logP in data set [1] of 2.78.

In data set [1], `CON(C)C(=O)c1nc(F)ccc1F` [3,6-Difluoro-N-methoxy-N-methylpyridine-2-carboxamide] returned a chromatographic logP of 1.05.

`CCSc1ccc(F)nc1-c1nc2cc(C(F)(F)F)ccc2n1C` [XI-1, 2-[3-(Ethylsulphanyl)-6-fluoropyridin-2-yl]-1-methyl-5-(trifluoromethyl)-1H-benzimidazole]: in data set [1], the chromatographic logP amounted to 3.44.

On to `O=C(CBr)c1nc(F)ccc1F` [2-Bromo-1-(3,6-difluoropyridin-2-yl)ethanone], for which, in data set [1], the “log P (neutral)” value is 1.95 and the chromatographic logP is 1.93.

Turning to `CC[S+]([O-])c1ccc(-n2cc(C(F)(F)F)cn2)nc1-c1nc2cc(C(F)(F)F)cnc2n1C` (stereo not drawn) [Example I-12], in the data set with Spodoptera frugiperda (application rate 500 g/ha), the efficacy worked out at 100%. Also, in data set [1], the “log P (neutral)” value worked out at 4.23.

`CCSc1ccc(C(=O)OC)nc1-c1nc2cc(C(F)(F)F)cnc2n1C` [LXXIX-1, Methyl 5-(ethylsulphanyl)-6-[3-methyl-6-(trifluoromethyl)-3H-imidazo[4,5-b]pyridin-2-yl]pyridine-2-carboxylate] yielded a chromatographic logP in data set [1] of 3.25.

The compound `FC1(F)Oc2cc3nc(-c4nc(Cl)ccc4Cl)[nH]c3cc2O1` [IX-4, 6-(3,6-Dichloro-2-pyridyl)-2,2-difluoro-5H-[1,3]dioxolo[4,5-f]benzimidazole] came in with a chromatographic logP in data set [1] of 3.2.

`CCS(=O)(=O)c1ccc(-n2ccc(C(F)(F)F)n2)nc1-c1cn2cnc(C(F)(F)F)cc2n1` [Example I-29]: the efficacy with Spodoptera frugiperda (application rate 500 g/ha) and with Phaedon cochleariae was 100% throughout.

In the data set with Spodoptera frugiperda (application rate 500 g/ha), `CCS(=O)(=O)c1ccc(-n2cc(C(F)(F)F)cn2)nc1-c1nc2cc(C(F)(F)F)ccc2n1C` [Example I-1, 2-{3-(Ethylsulphonyl)-6-[4-(trifluoromethyl)-1H-pyrazol-1-yl]pyridin-2-yl}-1-methyl-5-(trifluoromethyl)-1H-benzimidazole] registered an efficacy of 100%. This compound returned a chromatographic logP in data set [1] of 4.16. The pest or weed control at 500 g/ha in the data set with Phaedon cochleariae was 100%.

`Cn1c(-c2nc(F)ccc2F)nc2cc(C(F)(F)F)ccc21` [IX-1, 2-(3,6-Difluoropyridin-2-yl)-1-methyl-5-(trifluoromethyl)-1H-benzimidazole] displayed a chromatographic logP in data set [1] of 2.83.

In data set [1], `CCS(=O)(=O)c1ccc(C(=O)NC)nc1-c1nc2cc(C(F)(F)F)cnc2n1C` [Example I-34, 5-(Ethylsulphonyl)-N-methyl-6-[3-methyl-6-(trifluoromethyl)-3H-imidazo[4,5-b]pyridin-2-yl]pyridine-2-carboxamide] came in with a chromatographic logP of 2.36.

On to `CCS(=O)(=O)c1ccc(NC(C)=O)nc1-c1cn2cnc(C(F)(F)F)cc2n1` [Example I-32], for which the results for the efficacy in the data set with Spodoptera frugiperda (application rate 500 g/ha), with Phaedon cochleariae and in the data set with Myzus persicae (application rate 500 g/ha) were 80%, 100% and 90%, respectively. In addition, the “log P (neutral)” value in data set [1] turned out to be 1.99.

On to `CCS(=O)(=O)c1ccc(-n2nccn2)nc1-c1cn2cnc(C(F)(F)F)cc2n1` [Example I-27], for which the “log P (neutral)” value in data set [1] was determined as 2.28.

In turn, `CCS(=O)(=O)c1ccc(NC(C)=O)nc1-c1nc2cc3c(cc2n1C)OC(F)(F)O3` [Example I-7, N-[6-(2,2-Difluoro-7-methyl-[1,3]dioxolo[4,5-f]benzimidazol-6-yl)-5-ethylsulphonyl-2-pyridyl]acetamide] showed an efficacy with Spodoptera frugiperda (application rate 500 g/ha) of 83%. Also, the chromatographic logP in data set [1] worked out at 2.42. In addition, the pest or weed control at 500 g/ha with Phaedon cochleariae was 100%.

Broadly, the chromatographic logP is a lipophilicity value derived from retention on a column.
